From ChEMBL document CHEMBL3045062, “Potent in vitro and in vivo antitubercular activity of certain newly synthesized indophenazine 1,3,5-trisubstituted pyrazoline derivatives bearing benzofuran” (Med Chem Res, 2011)
Converted amounts (≈) assume the structure as drawn.

What was measured:
[1] = test system: Vero; assay: Cytotoxicity against Chlorocebus aethiops (African green monkey) Vero cells after 72 hr; type: cell-based; conditions: Chlorocebus sabaeus
[2] = test system: Mycobacterium tuberculosis; assay: Antitubercular activity against Mycobacterium tuberculosis H37Rv after 60 days; type: functional

SMILES: O=C(Cn1c2ccccc2c2nc3ccccc3nc21)N1N=C(c2cc3cc(O)ccc3o2)CC1c1ccccc1O (configuration not stated)
- IC50 [1]: > 227 µM
- MIC50 [2]: 9.81 µg/mL (≈ 17.7 µM)
- MIC90 [2]: 10.8 µg/mL (≈ 19.6 µM)

SMILES: COc1ccccc1C1CC(c2cc3cc(O)ccc3o2)=NN1C(=O)Cn1c2ccccc2c2nc3ccccc3nc21 (configuration not stated)
- IC50 [1]: > 226 µM
- MIC50 [2]: 11.8 µg/mL (≈ 20.8 µM)
- MIC90 [2]: 14.2 µg/mL (≈ 25 µM)

SMILES: CN(C)c1ccc(C2CC(c3cc4cc(O)ccc4o3)=NN2C(=O)Cn2c3ccccc3c3nc4ccccc4nc32)cc1 (configuration not stated)
- IC50 [1]: > 216 µM
- MIC50 [2]: 5.56 µg/mL (≈ 9.58 µM)
- MIC90 [2]: 9.21 µg/mL (≈ 15.9 µM)

SMILES: CC(=O)c1ccccc1C1CC(c2cc3cc(O)ccc3o2)=NN1C(=O)Cn1c2ccccc2c2nc3ccccc3nc21 (configuration not stated)
- IC50 [1]: > 220 µM

SMILES: O=C(Cn1c2ccccc2c2nc3ccccc3nc21)N1N=C(c2cc3cc(O)ccc3o2)CC1c1cccc([N+](=O)[O-])c1 (configuration not stated)
- IC50 [1]: > 180 µM
- MIC50 [2]: 0.62 µg/mL (≈ 1.06 µM)
- MIC90 [2]: 1.24 µg/mL (≈ 2.13 µM)

SMILES: COc1ccc(C2CC(c3cc4cc(O)ccc4o3)=NN2C(=O)Cn2c3ccccc3c3nc4ccccc4nc32)c(O)c1 (configuration not stated)
- IC50 [1]: > 206 µM
- MIC50 [2]: 4.56 µg/mL (≈ 7.81 µM)
- MIC90 [2]: 8.32 µg/mL (≈ 14.3 µM)

SMILES: O=C(Cn1c2ccccc2c2nc3ccccc3nc21)N1N=C(c2cc3cc(O)ccc3o2)CC1c1ccc(O)cc1 (configuration not stated)
- IC50 [1]: > 245 µM

SMILES: O=C(Cn1c2ccccc2c2nc3ccccc3nc21)N1N=C(c2cc3cc(O)ccc3o2)CC1c1ccc(Cl)cc1 (configuration not stated)
- IC50 [1]: > 205 µM
- MIC50 [2]: 2.45 µg/mL (≈ 4.28 µM)
- MIC90 [2]: 4.2 µg/mL (≈ 7.34 µM)

SMILES: O=C(Cn1c2ccccc2c2nc3ccccc3nc21)N1N=C(c2cc3cc(O)ccc3o2)CC1c1ccccc1Cl (configuration not stated)
- IC50 [1]: > 196 µM
- MIC50 [2]: 1.75 µg/mL (≈ 3.06 µM)
- MIC90 [2]: 2.56 µg/mL (≈ 4.48 µM)

SMILES: O=C(Cn1c2ccccc2c2nc3ccccc3nc21)N1N=C(c2cc3cc(O)ccc3o2)CC1c1ccccc1[N+](=O)[O-] (configuration not stated)
- IC50 [1]: > 144 µM
- MIC50 [2]: 0.16 µg/mL (≈ 0.275 µM)
- MIC90 [2]: 0.42 µg/mL (≈ 0.721 µM)

SMILES: COc1ccc(C2CC(c3cc4cc(O)ccc4o3)=NN2C(=O)Cn2c3ccccc3c3nc4ccccc4nc32)cc1 (configuration not stated)
- IC50 [1]: > 226 µM
- MIC50 [2]: 12.1 µg/mL (≈ 21.3 µM)
- MIC90 [2]: 14.3 µg/mL (≈ 25.2 µM)

SMILES: O=C(Cn1c2ccccc2c2nc3ccccc3nc21)N1N=C(c2cc3cc(O)ccc3o2)CC1c1ccccc1 (configuration not stated)
- IC50 [1]: > 197 µM

SMILES: O=C(Cn1c2ccccc2c2nc3ccccc3nc21)N1N=C(c2cc3cc(O)ccc3o2)CC1c1ccco1 (configuration not stated)
- IC50 [1]: > 198 µM
- MIC50 [2]: 1.1 µg/mL (≈ 2.09 µM)
- MIC90 [2]: 3.12 µg/mL (≈ 5.91 µM)

SMILES: O=C(Cn1c2ccccc2c2nc3ccccc3nc21)N1N=C(c2cc3cc(O)ccc3o2)CC1/C=C/c1ccccc1 (configuration not stated)
- IC50 [1]: > 206 µM
- MIC50 [2]: 0.98 µg/mL (≈ 1.74 µM)
- MIC90 [2]: 3.67 µg/mL (≈ 6.51 µM)

SMILES: COc1c(N2CCNC(C)C2)c(F)cc2c(=O)c(C(=O)O)cn(C3CC3)c12 (configuration not stated) [GATIFLOXACIN]
- IC50 [1]: > 160 µM
- MIC50 [2]: 0.12 µg/mL (≈ 0.32 µM)
- MIC90 [2]: 0.5 µg/mL (≈ 1.33 µM)

SMILES: CO[C@H]1/C=C/O[C@@]2(C)Oc3c(C)c(O)c4c(O)c(c(/C=N/N5CCN(C)CC5)c(O)c4c3C2=O)NC(=O)/C(C)=C\C=C\[C@H](C)[C@H](O)[C@@H](C)[C@@H](O)[C@@H](C)[C@H](OC(C)=O)[C@@H]1C [RIFAMPIN]
- IC50 [1]: > 77.4 µM
- MIC50 [2]: 0.5 µg/mL (≈ 0.608 µM)
- MIC90 [2]: 2 µg/mL (≈ 2.43 µM)
